In patent publication US12673954B2 (BRISTOL-MYERS SQUIBB COMPANY, priority 2021, dated 2026) one finds EC50 data, which are given here for 28 compounds.

Read-outs that look alike come from different tables or passages of the source.

In experiment [1] the test system is IRF pathway, THP1-Dual™ cells. As to the kind of experiment: STING reporter assay in THP1-Dual cells, IRF pathway (Lucia luciferase, QUANTI-Luc). The conditions noted are these: read-out: IRF (EC50 μM). It counts as cell-based, human. Summed up: (§1)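 Activation normalised between DMSO-only baseline and 100 μM cGAMP maximum, after 20 h compound exposure (starting at 100 μM final) at 37° C, 5% CO2. Supernatant SEAP (QUANTI-Blue, OD620) reports NF-κB; secreted luciferase (QUANTI-Luc, RLU at 5 min) reports IRF.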
In general terms: A reporter such as luciferase makes a cellular process visible.

Experiment [2] deals with NF-κB pathway, THP1-Dual™ cells. In words: STING reporter assay in THP1-Dual cells, NF-κB pathway (SEAP, QUANTI-Blue). In kind it is cell-based, human. The conditions noted are these: read-out: NFkB (EC50 μM). Summed up: as §1
Setting [3] is: Homo sapiens, THP1-Dual, 20 h, THP1-Dual cells, 10% human plasma, 20 hours, Lucia luciferase, 100% activation = 100 μM cGAMP.
The mark [4] stands for this setting: Homo sapiens, THP1-Dual, 20 h, THP1-Dual cells, 10% human plasma, 20 hours, SEAP, 100% activation = 100 μM cGAMP.
[5] abbreviates: THP1-Dual cells, 10% human plasma, 20 hours, Lucia luciferase, 100% activation = 100 μM cGAMP.
Where [6] appears, read: THP1-Dual cells, 10% human plasma, 20 hours, SEAP, 100% activation = 100 μM cGAMP.

With `COc1ccn2ncc(C(=O)NCc3cc4cc(Cl)cc(C(=O)OC(C)C(F)(F)F)c4o3)c2n1` (single isomer, unassigned) [EXAMPLE 368, 1,1,1-Trifluoropropan-2-yl 5-chloro-2-((5-methoxypyrazolo[1,5-a]pyrimidine-3-carboxamido)methyl)benzofuran-7-carboxylate], the EC50 in experiment [1] (setting [3]) and in experiment [2] (setting [4]) was 11 µM each time.

For the compound `COC(=O)c1cc(C)cc2cc(CNC(=O)c3cnn4cccnc34)oc12` [Example 89, Methyl 5-methyl-2-((pyrazolo[1,5-a]pyrimidine-3-carboxamido)methyl)benzofuran-7-carboxylate], the EC50 (commonly the midpoint of the concentration-response curve) in experiment [1] (setting [3]) is 0.21 µM; in experiment [2] (setting [4]), 0.19 µM.

With `CSC(=O)c1cc(Cl)cc2c(Cl)c(CNC(=O)c3cnn4cccnc34)oc12` [EXAMPLE 396], the values for the 50% effective concentration (EC50) in experiment [1] (setting [3]) and in experiment [2] (setting [4]) were 0.36 µM and 0.37 µM, respectively.

Regarding `O=C(OC1CC(F)(F)C1(F)F)c1cc(F)cc2cc(CNC(=O)c3cnn4cccnc34)oc12` (single isomer, unassigned) [EXAMPLE 322, 2,2,3,3-Tetrafluorocyclobutyl 5-fluoro-2-((pyrazolo[1,5-a]pyrimidine-3-carboxamido)methyl)benzofuran-7-carboxylate], the EC50 was found to be 2.2 µM in experiment [1] (setting [5]) and 3.3 µM in experiment [2] (setting [6]).

In the case of `CC(OC(=O)c1cccc2cc(CN3CCc4ccncc4C3=O)oc12)C(F)(F)F` (single isomer, unassigned) [EXAMPLE 307, 1,1,1-Trifluoropropan-2-yl 2-((1-oxo-3,4-dihydro-2,7-naphthyridin-2(1H)-yl)methyl)benzo-furan-7-carboxylate], the EC50 in experiment [1] (setting [5]) came to 7.7 µM; in experiment [2] (setting [6]), 8.9 µM.

Consider `Cc1cc(C(=O)O)c2oc(CNC(=O)c3cnn4cc(C)cnc34)c(Cl)c2c1` [EXAMPLE 177, 3-Chloro-5-methyl-2-((6-methylpyrazolo[1,5-a]pyrimidine-3-carboxamido)methyl)benzofuran-7-carboxylic acid], for which the EC50 in experiment [1] (setting [3]) is 87 µM; in experiment [2] (setting [4]), > 100 µM.

Consider `COC(=O)c1c(C)ccc2cc(CNC(=O)c3cnn4cccnc34)oc12` [EXAMPLE 108, Methyl 6-methyl-2-((pyrazolo[1,5-a]pyrimidine-3-carboxamido)methyl)benzofuran-7-carboxylate], for which the EC50 came out at 21 µM in experiment [1] (setting [3]) and 31 µM in experiment [2] (setting [4]).

As for `COC(=O)c1ccc(C)c2cc(CN3Cc4ccncc4C3=O)oc12` [EXAMPLE 30, Methyl 4-methyl-2-((3-oxo-1,3-dihydro-2H-pyrrolo[3,4-c]pyridin-2-yl)methyl)benzofuran-7-carboxylate], the EC50 in experiment [1] (setting [3]) came out at 27 µM; in experiment [2] (setting [4]), 31 µM.

For the compound `COC(=O)c1cc(C)cc2c(Cl)c(C(C)NC(=O)c3cnn4cccnc34)oc12` (single isomer, unassigned) [EXAMPLE 120, Methyl-3-chloro-5-methyl-2-(1-(pyrazolo[1,5-a]pyrimidine-3-carboxamido)ethyl)benzofuran-7-carboxylate], the results for the EC50 in experiment [1] (setting [3]) and in experiment [2] (setting [4]) were 2.7 µM and 3.2 µM, respectively.

In the case of `C[C@@H](OC(=O)c1cc(F)cc2c(Cl)c(CNC(=O)c3cnn4cccnc34)oc12)C(F)(F)F` [EXAMPLE 288, (R)-1,1,1-Trifluoropropan-2-yl 3-chloro-5-fluoro-2-((pyrazolo[1,5-a]pyrimidine-3-carboxamido)methyl)benzofuran-7-carboxylate], the EC50 in experiment [1] (setting [3]) and in experiment [2] (setting [4]) was 0.36 µM throughout.

Turning to `COC(=O)c1cccc2c(Cl)c(CNC(=O)c3cnn4cccnc34)oc12` [EXAMPLE 22, Methyl 3-chloro-2-((pyrazolo[1,5-a]pyrimidine-3-carboxamido)methyl)benzofuran-7-carboxylate], the EC50 in experiment [1] (setting [3]) worked out at 0.6 µM; in experiment [2] (setting [4]) it was 0.67 µM.

As for `CCOC(=O)OC(C)OC(=O)c1cc(Cl)cc2cc(CNC(=O)c3cnn4cccnc34)oc12` (racemic) [EXAMPLE 261, 1-((Ethoxycarbonyl)oxy)ethyl 5-chloro-2-((pyrazolo[1,5-a]pyrimidine-3-carboxamido)methyl)benzofuran-7-carboxylate], the EC50 worked out at 0.95 µM in experiment [1] (setting [3]) and 0.82 µM in experiment [2] (setting [4]).

Regarding `COC(=O)c1cccc2cc(CNC(=O)c3cnn4cccnc34)oc12` [EXAMPLE 9, Methyl 2-((pyrazolo[1,5-a]pyrimidine-3-carboxamido)methyl) benzofuran-7-carboxylate], the EC50 in experiment [1] (setting [5]) is 2.1 µM; in experiment [2] (setting [6]) it was 1.8 µM.

Turning to `O=C(OC1CNC1)c1cc(Cl)cc2cc(CNC(=O)c3cnn4cccnc34)oc12` [EXAMPLE 248, Azetidin-3-yl 5-chloro-2-((pyrazolo[1,5-a]pyrimidine-3-carboxamido)methyl)benzofuran-7-carboxylate], the EC50 came out at 73 µM in experiment [1] (setting [3]) and 98 µM in experiment [2] (setting [4]).

For the compound `Cc1cc(C(=O)OC2CC(F)(F)C2)c2oc(CNC(=O)c3cnn4cccnc34)cc2c1` [EXAMPLE 275, 3,3-Difluorocyclobutyl 5-methyl-2-((pyrazolo[1,5-a]pyrimidine-3-carboxamido)methyl)-benzofuran-7-carboxylate], the EC50 amounted to 0.94 µM in experiment [1] (setting [3]) and 0.72 µM in experiment [2] (setting [4]).

Take `COC(=O)c1cc(C)cc2cc(C(C)NC(=O)c3cnn4cccnc34)oc12` (single isomer, unassigned) [Example 97, Methyl-5-methyl-2-(1-(pyrazolo[1,5-a]pyrimidine-3-carboxamido)ethyl)benzofuran-7-carboxylate]: the 50% effective concentration (EC50) in experiment [1] (setting [3]) came to 2.1 µM; in experiment [2] (setting [4]), 1.5 µM.

As for `O=C(OCC(F)F)c1cc(F)cc2cc(CNC(=O)c3cnn4cccnc34)oc12` [EXAMPLE 235, 2,2-Difluoroethyl 5-fluoro-2-((pyrazolo[1,5-a]pyrimidine-3-carboxamido)methyl)benzofuran-7-carboxylate], the EC50 in experiment [1] (setting [3]) worked out at 0.69 µM; in experiment [2] (setting [4]), 0.68 µM.

Turning to `COC(=O)c1cc(Cl)cc2cc(CNC(=O)c3cncc(Br)n3)oc12` [Example 62, Methyl 2-((6-bromopyrazine-2-carboxamido)methyl)-5-chlorobenzofuran-7-carboxylate], the figures for the EC50 in experiment [1] (setting [3]) and in experiment [2] (setting [4]) were 42 µM and 46 µM, respectively.

Regarding `COC(=O)c1cc(C)cc2cc(CN3Cc4ccncc4C3=O)oc12` [Example 88, Methyl 5-methyl-2-((3-oxo-1,3-dihydro-2H-pyrrolo[3,4-c]pyridin-2-yl)methyl)benzofuran-7-carboxylate], the EC50 in experiment [1] (setting [3]) was determined as 21 µM; in experiment [2] (setting [4]) it was 20 µM.

On to `O=C(OCC(F)(F)F)c1cc(Cl)cc2cc(Cn3cnc4ccncc4c3=O)oc12` [EXAMPLE 371, 2,2,2-Trifluoroethyl 5-chloro-2-((4-oxopyrido[4,3-d]pyrimidin-3(4H)-yl)methyl)benzofuran-7-carboxylate], for which the figures for the EC50 in experiment [1] (setting [3]) and in experiment [2] (setting [4]) were 2.5 µM and 2.8 µM, respectively.

Consider `COC(=O)c1cccc2cc(CNC(=O)c3cnn4cc(C)cnc34)oc12` [EXAMPLE 11, Methyl 2-((6-methylpyrazolo[1,5-a]pyrimidine-3-carboxamido)methyl) benzofuran-7-carboxylate], for which the EC50 in experiment [1] (setting [5]) worked out at 6.1 µM; in experiment [2] (setting [6]) it was 6.7 µM.

On to `C[C@H](NC(=O)c1cnn2cccnc12)c1cc2cc(Cl)cc(C(=O)SCC[Si](C)(C)C)c2o1` [EXAMPLE 400, S-(2-(Trimethylsilyl)ethyl) (S)-5-chloro-2-(1-(pyrazolo[1,5-a]pyrimidine-3-carboxamido)ethyl)benzofuran-7-carbothioate], for which the EC50 in experiment [1] (Homo sapiens, THP1-Dual, 20 h) is 25 µM; in experiment [2] (Homo sapiens, THP1-Dual, 20 h), 22 µM.

In the case of `O=C(OCC(F)(F)F)c1cc(F)cc2cc(CNC(=O)c3cnn4cccnc34)oc12` [EXAMPLE 231, 2,2,2-Trifluoroethyl 5-fluoro-2-((pyrazolo[1,5-a]pyrimidine-3-carboxamido)methyl)benzofuran-7-carboxylate], the EC50 in experiment [1] (setting [3]) is 0.5 µM; in experiment [2] (setting [4]) it was 0.65 µM.

Regarding `O=C(OC1CCC1)c1cc(F)cc2cc(CNC(=O)c3cnn4cccnc34)oc12` [EXAMPLE 234, Cyclobutyl 5-fluoro-2-((pyrazolo[1,5-a]pyrimidine-3-carboxamido)methyl)benzofuran-7-carboxylate], the EC50 in experiment [1] (setting [3]) and in experiment [2] (setting [4]) was 1.1 µM in each case.

In the case of `C[C@H](NC(=O)c1cnn2cccnc12)c1oc2c(C(=O)OCC(F)(F)F)cc(F)cc2c1Cl` [EXAMPLE 292, 2,2,2-Trifluoroethyl (S)-3-chloro-5-fluoro-2-(1-(pyrazolo[1,5-a]pyrimidine-3-carboxamido)ethyl)benzofuran-7-carboxylate], the EC50 turned out to be 1.7 µM in experiment [1] (setting [3]) and 1.1 µM in experiment [2] (setting [4]).

Regarding `COC(=O)c1cc(F)cc2cc(Cn3ccc4ncncc4c3=O)oc12` [EXAMPLE 37, Methyl 5-fluoro-2-((5-oxopyrido[4,3-d]pyrimidin-6(5H)-yl)methyl)benzofuran-7-carboxylate], the EC50 in experiment [1] (setting [3]) stood at 11 µM; in experiment [2] (setting [4]), 12 µM.

Regarding `CN1CCN(CCOC(=O)c2cc(Cl)cc3cc(CNC(=O)c4cnn5cccnc45)oc23)CC1` [EXAMPLE 257, 2-(4-Methylpiperazin-1-yl)ethyl 5-chloro-2-((pyrazolo[1,5-a]pyrimidine-3-carboxamido)methyl)benzofuran-7-carboxylate], the EC50 in experiment [1] (setting [3]) was determined as 28 µM; in experiment [2] (setting [4]) it was 11 µM.

Regarding `CC(CC(F)(F)F)OC(=O)c1cc(Cl)cc2cc(CNC(=O)c3cnn4cccnc34)oc12` (single isomer, unassigned) [EXAMPLE 336, 4,4,4-Trifluorobutan-2-yl 5-chloro-2-((pyrazolo[1,5-a]pyrimidine-3-carboxamido)methyl)benzofuran-7-carboxylate], the EC50 in experiment [1] (setting [5]) was 3.2 µM; in experiment [2] (setting [6]) it was 2.5 µM.
